Reference: patent US12286435B2, “Compound having benzo seven-membered ring structure, preparation method therefor, and use thereof” (BIONNA (BEIJING) MEDICAL TECHNOLOGY CO., LTD., priority 2019, dated 2025)
Structures can show the parent of a compound that is named as a salt. Where two headings read alike, the source gives them in different places.

What was measured:
BRD4 BD1 protein = BRD4 BD1 protein (Homo sapiens (Human), UniProt O60885); assay: Fluorescence polarization binding affinity (Ki) with BRD4 BD1 protein
BRD4 BD2 protein = BRD4 BD2 protein (Homo sapiens (Human), UniProt O60885); assay: Fluorescence polarization binding affinity (Ki) with BRD4 BD2 protein
[1] = fluorescence polarization, Ki calculated from IC50

| Molecule | Ki (BRD4 BD1 protein; [1]) [nM] | Ki (BRD4 BD2 protein; [1]) [nM] | Ki (BRD4 BD1 protein) [nM] | Ki (BRD4 BD2 protein) [nM] |
| --- | --- | --- | --- | --- |
| Cc1nnn2c1-c1ccc(-c3cnn(C)c3)cc1C(Nc1cc(F)cc(Cl)c1)CC2 (centres unmarked) [BJ193, N-(3-chloro-5-fluorophenyl)-1-methyl-9-(1-methyl-1H-pyrazol-4-yl)-6,7-dihydro-5H-benzo[c][1,2,3]triazolo[1,5-a]azepin-7-amine] | 28.3 | 8.4 |  |  |
| Cc1nnn2c1-c1ccc(C3=CCN(C)CC3)cc1C(Nc1ccccc1Cl)CC2 (centres unmarked) [RD06, N-(2-chlorophenyl)-1-methyl-9-(1-methyl-1,2,3,6-tetrahydropyridin-4-yl)-6,7-dihydro-5H-benzo[c][1,2,3]triazolo[1,5-a]azepin-7-amine 2,2,2-trifluoroacetate] | 1030 | 56.4 |  |  |
| Cc1nnn2c1-c1ccc(C3=CCNCC3)cc1C(Nc1cccc(Cl)c1F)CC2 (centres unmarked) [LC190, N-(3-chloro-2-fluorophenyl)-1-methyl-9-(1,2,3,6-tetrahydropyridin-4-yl)-6,7-dihydro-5H-benzo[c][1,2,3]triazolo[1,5-a]azepin-7-amine 2,2,2-trifluoroacetate] | 592 | 60 |  |  |
| Cc1nnn2c1-c1ccc(C3=CCNCC3)cc1C(Nc1ccc(F)cc1)CC2 (centres unmarked) [BJ122, N-(4-fluorophenyl)-1-methyl-9-(1,2,3,6-tetrahydropyridin-4-yl)-6,7-dihydro-5H-benzo[c][1,2,3]triazolo[1,5-a]azepin-7-amine 2,2,2-trifluoroacetate] | 757 | 68.6 |  |  |
| Cc1nnn2c1-c1ccc(C3CCN(C)CC3)cc1C(Nc1ccc(Cl)cc1)CC2 (centres unmarked) [BF178, N-(4-chlorophenyl)-1-methyl-9-(1-methylpiperidin-4-yl)-6,7-dihydro-5H-benzo[c][1,2,3]triazolo[1,5-a]azepin-7-amine] | > 20000 | > 20000 |  |  |
| CCC(=O)N1CC=C(c2ccc3c(c2)C(Nc2cccc(Cl)c2)CCn2nnc(C)c2-3)CC1 (centres unmarked) [BH86, 1-(4-(7-((3-chlorophenyl)amino)-1-methyl-6,7-dihydro-5H-benzo[c][1,2,3]triazolo[1,5-a]azepin-9-yl)-3,6-dihydropyridin-1(2H)-yl)propan-1-one] | 9.51 | 6.43 |  |  |
| CCN1CCC(c2ccc3c(c2)C(Nc2cccc(Cl)c2)CCn2nnc(C)c2-3)CC1 (centres unmarked) [RD142, N-(3-chlorophenyl)-9-(1-ethylpiperidin-4-yl)-1-methyl-6,7-dihydro-5H-benzo[c][1,2,3]triazolo[1,5-a]azepin-7-amine 2,2,2-trifluoroacetate] | 4410 | 193 |  |  |
| CCN1CC=C(c2ccc3c(c2)C(Nc2ccc(F)c(Cl)c2)CCn2nnc(C)c2-3)CC1 (centres unmarked) [RD121, N-(3-chloro-4-fluorophenyl)-9-(1-ethyl-1,2,3,6-tetrahydropyridin-4-yl)-1-methyl-6,7-dihydro-5H-benzo[c][1,2,3]triazolo[1,5-a]azepin-7-amine 2,2,2-trifluoroacetate] |  |  | 788 | 31.8 |
| COc1cccc(NC2CCn3nnc(C)c3-c3ccc(C4=CCN(C(C)=O)CC4)cc32)c1 (centres unmarked) [BH27, 1-(4-(7-((3-methoxyphenyl)amino)-1-methyl-6,7-dihydro-5H-benzo[c][1,2,3]triazolo[1,5-a]azepin-9-yl)-3,6-dihydropyridin-1(2H)-yl)ethan-1-one] | 70.1 | 2.95 |  |  |
| COc1ccc(NC2CCn3nnc(C)c3-c3ccc(C4=CCNCC4)cc32)cc1 (centres unmarked) [LC160, N-(4-methoxyphenyl)-1-methyl-9-(1,2,3,6-tetrahydropyridin-4-yl)-6,7-dihydro-5H-benzo[c][1,2,3]triazolo[1,5-a]azepin-7-amine 2,2,2-trifluoroacetate] | 2270 | 114 |  |  |
| Cc1nnn2c1-c1ccc(C3=CCN(C)CC3)cc1C(Oc1cccc(Cl)c1)CC2 (centres unmarked) [BH43, 7-(3-chlorophenoxy)-1-methyl-9-(1-methyl-1,2,3,6-tetrahydropyridin-4-yl)-6,7-dihydro-5H-benzo[c][1,2,3]triazolo[1,5-a]azepine 2,2,2-trifluoroacetate] | > 100000 | 316 |  |  |
| N-(4-chlorophenyl)-9-(3,6-dihydro-2H-pyran-4-yl)-1-methyl-6,7-dihydro-5H-benzo[c][1,2,3]triazolo[1,5-a]azepin-7-amine [LD31] |  |  | 39.1 | 17.1 |
| Cc1nnn2c1-c1ccc(C3=CCN(C(C)C)CC3)cc1[C@@H](Nc1cccc(Cl)c1)CC2 [RE10 (S), (7S)—N-(3-chlorophenyl)-9-(1-isopropyl-1,2,3,6-tetrahydropyridin-4-yl)-1-methyl-6,7-dihydro-5H-benzo[c][1,2,3]triazolo[1,5-a]azepin-7-amine 2,2,2-trifluoroacetate] | 884 | 177 |  |  |
| Cc1nnn2c1-c1ccc(C3=CCN(C4CCCC4)CC3)cc1C(Nc1cccc(Cl)c1)CC2 (centres unmarked) [BH107, N-(3-chlorophenyl)-9-(1-cyclopentyl-1,2,3,6-tetrahydropyridin-4-yl)-1-methyl-6,7-dihydro-5H-benzo[c][1,2,3]triazolo[1,5-a]azepin-7-amine 2,2,2-trifluoroacetate] | 1740 | 17.6 |  |  |
| Cc1nnn2c1-c1ccc(C3=CCNCC3)cc1C(Nc1ccc3cc[nH]c3c1)CC2 (centres unmarked) [WA83, N-(1H-indo1-6-yl)-1-methyl-9-(1,2,3,6-tetrahydropyridin-4-yl)-6,7-dihydro-5H-benzo[c][1,2,3]triazolo[1,5-a]azepin-7-amine 2,2,2-trifluoroacetate] | 431 | 88.6 |  |  |
| Cc1nnn2c1-c1ccc(C3=CCN(C4CCC4)CC3)cc1C(Nc1cccc(C#N)c1)CC2 (centres unmarked) [BI36, 3-(((9-(1-cyclobutyl-1,2,3,6-tetrahydropyridin-4-yl))-1-methyl-6,7-dihydro-5H-benzo[c][1,2,3]triazolo[1,5-a]azepin-7-yl)amino)benzonitrile 2,2,2-trifluoroacetate] | 1850 | 89.8 |  |  |
| Cc1nnn2c1-c1ccc(C3=CCN(C4CCCC4)CC3)cc1C(Nc1cccc(S(C)(=O)=O)c1)CC2 (centres unmarked) [BI55, 9-(1-cyclopentyl-1,2,3,6-tetrahydropyridin-4-yl)-1-methyl-N-(3-(methylsulfonyl)phenyl)-6,7-dihydro-5H-benzo[c][1,2,3]triazolo[1,5-a]azepin-7-amine 2,2,2-trifluoroacetate] | 3100 | 116 |  |  |
| Cc1cc(NC2CCn3nnc(C)c3-c3ccc(C4=CCNCC4)cc32)n(C)n1 (centres unmarked) [BJ28, N-(1,3-dimethyl-1H-pyrazol-5-yl)-1-methyl-9-(1,2,3,6-tetrahydropyridin-4-yl)-6,7-dihydro-5H-benzo[c][1,2,3]triazolo[1,5-a]azepin-7-amine 2,2,2-trifluoroacetate] | 1830 | 250 |  |  |
| Cc1nnn2c1-c1ccc(-c3cnn(C)c3)cc1C(Nc1cccc(Cl)c1)CC2 (centres unmarked) [LC186, N-(3-chlorophenyl)-1-methyl-9-(1-methyl-1H-pyrazol-4-yl)-6,7-dihydro-5H-benzo[c][1,2,3]triazolo[1,5-a]azepin-7-amine] | 31.3 | 6.98 |  |  |
| Cc1nnn2c1-c1ccc(C3=CCNCC3)cc1C(Nc1cccc(CC(=O)O)c1)CC2 (centres unmarked) [LC87, 2-(3-((1-methyl-9-(1,2,3,6-tetrahydropyridin-4-yl)-6,7-dihydro-5H-benzo[c][1,2,3]triazolo[1,5-a]azepin-7-yl)amino)phenyl) acetic acid] | > 20000 | 142 |  |  |
| Cc1nnn2c1-c1ccc(-c3cnn(C)c3)cc1C(N(C=O)c1cccc(Cl)c1)CC2 (centres unmarked) [LC174, N-(3-chlorophenyl)-N-(1-methyl-9-(1-methyl-1H-pyrazol-4-yl)-6,7-dihydro-5H-benzo[c][1,2,3]triazolo[1,5-a]azepin-7-yl)formamide] | 949 | 623 |  |  |
| CCn1cc(-c2ccc3c(c2)[C@H](Nc2ccc(Cl)cc2)CCn2nnc(C)c2-3)cn1 [RE136, (R)—N-(4-chlorophenyl)-9-(1-ethyl-1H-pyrazol-4-yl)-1-methyl-6,7-dihydro-5H-benzo[c][1,2,3]triazolo[1,5-a]azepin-7-amine] | 2.66 ± 0.37 | < 1 |  |  |
| Cc1nnn2c1-c1ccc(-c3cnn(C)c3)cc1[C@H](Nc1cccc(Cl)c1)CC2 [RE124, (R)—N-(3-chlorophenyl)-1-methyl-9-(1-methyl-1H-pyrazol-4-yl)-6,7-dihydro-5H-benzo[c][1,2,3]triazolo[1,5-a]azepin-7-amine] | 9.92 ± 3.36 | < 1 |  |  |
| Cc1nnn2c1-c1ccc(C3=CCN(C4CCC4)CC3)cc1C(Nc1cc(Cl)ccc1F)CC2 (centres unmarked) [BI26, N-(5-chloro-2-fluorophenyl)-9-(1-cyclobutyl-1,2,3,6-tetrahydropyridin-4-yl)-1-methyl-6,7-dihydro-5H-benzo[c][1,2,3]triazolo[1,5-a]azepin-7-amine 2,2,2-trifluoroacetate] | 861 | 45.4 |  |  |
| Cc1nnn2c1-c1ccc(C3=CCNCC3)cc1C(Nc1ccc(O)cc1)CC2 (centres unmarked) [LC117, 4-((1-methyl-9-(1,2,3,6-tetrahydropyridin-4-yl)-6,7-dihydro-5H-benzo[c][1,2,3]triazolo[1,5-a]azepin-7-yl)amino)phenol 2,2,2-trifluoroacetate] | 2370 | 116 |  |  |
| Cc1nnn2c1-c1ccc(C3=CCNCC3)cc1C(Nc1cccc(CO)c1)CC2 (centres unmarked) [RD21, (3-((1-methyl-9-(1,2,3,6-tetrahydropyridin-4-yl)-6,7-dihydro-5H-benzo[c][1,2,3]triazolo[1,5-a]azepin-7-yl)amino)phenyl)methanol 2,2,2-trifluoroacetate] | 1530 | 90.4 |  |  |
| Cc1nnn2c1-c1ccc(C3CCNCC3)cc1C(Nc1ccc(Cl)cc1)CC2 (centres unmarked) [BF169, N-(4-chlorophenyl)-1-methyl-9-(piperidin-4-yl)-6,7-dihydro-5H-benzo[c][1,2,3]triazolo[1,5-a]azepin-7-amine hydrochloride] | > 20000 | 661 |  |  |
| Cc1nnn2c1-c1ccc(C3=CCNCC3)cc1C(Nc1ccc(C#N)cc1)CC2 (centres unmarked) [LC128, 4-((1-methyl-9-(1,2,3,6-tetrahydropyridin-4-yl)-6,7-dihydro-5H-benzo[c][1,2,3]triazolo[1,5-a]azepin-7-yl)amino)benzonitrile 2,2,2-trifluoroacetate] | 467 | 56.2 |  |  |
